Source: paper PMC5159281 (Bioorganic & medicinal chemistry letters, 2016)

Key:
[1] = biological target: PfCDPK1 (Plasmodium falciparum, UniProt P62344); assay: biochemical
[2] = biological target: recombinant PfPKG (Plasmodium falciparum, UniProt Q8I719); assay: biochemical
[3] = test system: HepG2 cells; assay: cells; settings: Homo sapiens, HepG2, read-out: HepG2 EC50
[4] = test system: CRL-8155 cells; assay: cells; settings: Homo sapiens, CRL8155, read-out: CRL8155 EC50
[5] = test system: P. falciparum blood stage; settings: result in words
[6] = biological target: recombinant PfCDPK4 (Plasmodium falciparum, UniProt Q8IBS5); assay: biochemical
[7] = cited from earlier work
[8] = biological target: hERG (Homo sapiens, UniProt Q12809); settings: cited from earlier work
Chain of hERG (Q12809 whole entry): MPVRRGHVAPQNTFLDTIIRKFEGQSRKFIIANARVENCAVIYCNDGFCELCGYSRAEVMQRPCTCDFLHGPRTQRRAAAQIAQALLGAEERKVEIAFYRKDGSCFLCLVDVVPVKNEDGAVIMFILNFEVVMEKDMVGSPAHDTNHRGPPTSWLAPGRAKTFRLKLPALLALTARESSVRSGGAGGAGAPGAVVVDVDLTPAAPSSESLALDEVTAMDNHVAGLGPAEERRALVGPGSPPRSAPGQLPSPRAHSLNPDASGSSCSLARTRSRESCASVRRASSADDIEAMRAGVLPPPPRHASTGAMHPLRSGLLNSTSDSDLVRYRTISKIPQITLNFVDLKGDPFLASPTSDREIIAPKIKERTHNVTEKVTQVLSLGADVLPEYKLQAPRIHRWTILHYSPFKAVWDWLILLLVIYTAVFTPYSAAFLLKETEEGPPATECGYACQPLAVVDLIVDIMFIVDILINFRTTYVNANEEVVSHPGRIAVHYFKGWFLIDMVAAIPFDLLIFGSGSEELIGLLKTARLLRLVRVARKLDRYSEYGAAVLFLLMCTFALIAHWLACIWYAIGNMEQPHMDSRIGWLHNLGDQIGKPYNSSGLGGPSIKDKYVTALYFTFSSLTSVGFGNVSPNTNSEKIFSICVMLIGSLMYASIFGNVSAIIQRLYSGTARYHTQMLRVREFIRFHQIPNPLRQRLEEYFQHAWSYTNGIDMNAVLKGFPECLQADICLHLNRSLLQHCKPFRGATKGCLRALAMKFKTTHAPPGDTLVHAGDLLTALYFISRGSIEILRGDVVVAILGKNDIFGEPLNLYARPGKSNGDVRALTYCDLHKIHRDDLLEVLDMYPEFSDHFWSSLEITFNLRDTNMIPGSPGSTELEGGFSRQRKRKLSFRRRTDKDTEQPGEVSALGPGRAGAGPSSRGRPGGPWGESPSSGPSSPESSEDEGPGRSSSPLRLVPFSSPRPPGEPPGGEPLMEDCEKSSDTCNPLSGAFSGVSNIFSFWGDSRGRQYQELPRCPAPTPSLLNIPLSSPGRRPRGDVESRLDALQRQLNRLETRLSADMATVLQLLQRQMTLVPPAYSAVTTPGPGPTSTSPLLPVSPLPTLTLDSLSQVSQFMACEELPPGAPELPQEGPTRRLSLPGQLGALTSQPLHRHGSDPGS

Chain of PfCDPK1 (P62344 whole entry): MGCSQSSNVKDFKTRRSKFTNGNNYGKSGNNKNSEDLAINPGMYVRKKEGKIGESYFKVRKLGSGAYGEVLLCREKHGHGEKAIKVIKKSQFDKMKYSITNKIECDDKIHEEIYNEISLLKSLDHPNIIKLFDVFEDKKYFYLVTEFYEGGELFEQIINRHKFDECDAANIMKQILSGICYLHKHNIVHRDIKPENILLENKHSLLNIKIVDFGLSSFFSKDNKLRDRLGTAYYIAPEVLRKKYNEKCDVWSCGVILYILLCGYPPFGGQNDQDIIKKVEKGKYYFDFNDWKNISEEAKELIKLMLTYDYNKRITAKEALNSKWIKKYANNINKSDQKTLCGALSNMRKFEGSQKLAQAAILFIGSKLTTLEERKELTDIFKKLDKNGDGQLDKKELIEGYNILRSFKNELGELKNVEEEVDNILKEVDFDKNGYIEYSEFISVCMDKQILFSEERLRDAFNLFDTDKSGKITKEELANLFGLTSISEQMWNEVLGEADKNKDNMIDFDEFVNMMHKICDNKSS
Chain of recombinant PfCDPK4 (Q8IBS5 whole entry): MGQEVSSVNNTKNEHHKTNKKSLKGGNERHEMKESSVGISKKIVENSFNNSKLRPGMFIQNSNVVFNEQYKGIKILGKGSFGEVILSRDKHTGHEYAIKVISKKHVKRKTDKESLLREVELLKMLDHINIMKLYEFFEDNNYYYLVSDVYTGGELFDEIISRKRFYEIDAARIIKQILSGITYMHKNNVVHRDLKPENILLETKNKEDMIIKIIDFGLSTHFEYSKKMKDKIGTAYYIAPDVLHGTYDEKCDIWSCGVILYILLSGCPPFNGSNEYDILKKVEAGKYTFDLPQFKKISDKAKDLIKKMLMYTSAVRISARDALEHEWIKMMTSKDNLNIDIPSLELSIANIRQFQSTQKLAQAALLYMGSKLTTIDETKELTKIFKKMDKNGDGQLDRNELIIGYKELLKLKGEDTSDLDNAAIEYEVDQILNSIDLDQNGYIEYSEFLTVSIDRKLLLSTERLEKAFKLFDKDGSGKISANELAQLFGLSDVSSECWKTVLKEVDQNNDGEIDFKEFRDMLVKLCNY
Chain of recombinant PfPKG (Q8I719 whole entry): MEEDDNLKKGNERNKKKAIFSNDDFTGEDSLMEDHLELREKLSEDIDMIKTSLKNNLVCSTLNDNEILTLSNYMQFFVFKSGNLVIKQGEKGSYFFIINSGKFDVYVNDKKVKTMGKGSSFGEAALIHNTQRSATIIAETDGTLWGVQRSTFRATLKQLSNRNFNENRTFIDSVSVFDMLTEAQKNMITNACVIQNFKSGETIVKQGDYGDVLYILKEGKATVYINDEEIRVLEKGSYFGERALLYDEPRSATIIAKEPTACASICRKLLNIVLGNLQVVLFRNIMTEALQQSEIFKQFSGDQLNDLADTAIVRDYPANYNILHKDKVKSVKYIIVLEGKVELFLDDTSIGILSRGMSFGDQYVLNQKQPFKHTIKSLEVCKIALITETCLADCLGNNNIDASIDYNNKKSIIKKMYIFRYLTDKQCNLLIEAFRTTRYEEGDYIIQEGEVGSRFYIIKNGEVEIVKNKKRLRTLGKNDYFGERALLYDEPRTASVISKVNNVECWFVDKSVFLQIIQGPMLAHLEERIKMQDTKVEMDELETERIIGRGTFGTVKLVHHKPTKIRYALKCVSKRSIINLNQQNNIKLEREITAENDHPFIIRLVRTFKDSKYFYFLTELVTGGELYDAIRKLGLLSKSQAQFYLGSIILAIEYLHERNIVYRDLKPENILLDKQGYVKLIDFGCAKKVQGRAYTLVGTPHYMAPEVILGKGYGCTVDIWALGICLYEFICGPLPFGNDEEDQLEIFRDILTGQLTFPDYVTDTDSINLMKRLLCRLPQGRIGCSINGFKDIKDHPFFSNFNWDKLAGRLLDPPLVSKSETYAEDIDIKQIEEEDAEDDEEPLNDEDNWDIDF

Compound	IC50 [1]	EC50 [3]	EC50 [4]	other results
CC(C)n1nc(-c2ccc3nc(OC4CCC4)ccc3c2)c(C(N)=O)c1N [Compound 27]	0.159 µM			
CCOc1ccc2cc(-c3nn(C(C)(C)C)c(N)c3C(N)=O)ccc2c1 [Compound 5]	0.287 µM			IC50 [2]: 2.37 µM
CCOc1ccc2cc(-c3nn(C(C)C)c(N)c3C(N)=O)cnc2c1 [Compound 14]		> 30 µM	> 30 µM	
CC(C)(C)n1nc(-c2cnc3cc(OC4CC4)ccc3c2)c(C(N)=O)c1N [Compound 8]	0.225 µM			
CCOc1ccc2cc(-c3nn(C4CCCCC4)c(N)c3C(N)=O)ccc2n1 [Compound 26]		> 30 µM	> 30 µM	anti-erythrocytic stage inhibition [5]: some observable anti-erythrocytic stage inhibition
CCOc1ccc2cc(-c3nn(C(C)(C)C)c(N)c3C(N)=O)cnc2c1 [Compound 6]		> 30 µM		anti-erythrocytic stage inhibition [5]: some observable anti-erythrocytic stage inhibition
CCOc1ccc2cc(-c3nn(CC(C)(C)CO)c(N)c3C(N)=O)cnc2c1 [Compound 17]		> 30 µM	> 30 µM	
CCOc1ccc2cc(-c3nn(C4CCOC4)c(N)c3C(N)=O)ccc2n1 (centres unmarked) [Compound 25]	0.468 µM			IC50 [6]: 0.103 µM
CC(C)(C)n1nc(-c2ccc3cc(O)ccc3c2)c(C(N)=O)c1N [Compound 2]		> 30 µM	> 30 µM	anti-erythrocytic stage inhibition [5]: some observable anti-erythrocytic stage inhibition
CCOc1ccc2cc(-c3nn(CC4CCN(C)CC4)c4ncnc(N)c34)ccc2c1 [Compound 1294]				toxicity ([7]; initial mouse studies): low toxicity; oral availability ([7]; mouse): orally available; hERG inhibitory activity [8]: hERG inhibitory activity at therapeutic concentrations
COc1ccc2cc(-c3nn(C(C)(C)C)c(N)c3C(N)=O)cnc2c1 [Compound 4]		> 30 µM	> 30 µM	
